Values quoted from earlier work, collected in patent EP4015634A1, “SIRNA AND COMPOSITIONS FOR PROPHYLACTIC AND THERAPEUTIC TREATMENT OF VIRUS DISEASES” (SYLENTIS, S.A.U., priority 2020, dated 2022).
*1 amine or outer side, *2 acyl side, *3 side chain or, on linkers, in order; H or OH if unused. Where a SMILES comes first, the peptide text is derived from it. Bridges are numbered along the chain shown (N, C = ends). [ ]: non-standard residue; d: D form. The star is where a group is joined. X1 = CC[C@H](C)[C@@H](N[*:1])[C@@H](O)CC(=O)O[C@H](C(=O)[C@H](C)C(=O)[*:2])C(C)C; NMeY = CN[C@@H](Cc1ccc(O)cc1)C(=O)O; dNMeL = CN[C@H](CC(C)C)C(=O)O; Pyruvoyl = CC(=O)C(=O)*

Legend:
SARS-CoV-2 = conditions: in vitro studies
patients with COVID-19 = conditions: phase I

Compound: CC[C@H](C)[C@H]1NC(=O)[C@@H](NC(=O)[C@@H](CC(C)C)N(C)C(=O)[C@@H]2CCCN2C(=O)C(C)=O)[C@@H](C)OC(=O)[C@H](Cc2ccc(OC)cc2)N(C)C(=O)[C@@H]2CCCN2C(=O)[C@H](CC(C)C)NC(=O)[C@@H](C)C(=O)[C@H](C(C)C)OC(=O)C[C@@H]1O [plitidepsin] (Pyruvoyl-P[dNMeL]T[X1]LP[NMeY](Me); ester 3-C)
- SARS-CoV-2 viral load in vitro (SARS-CoV-2): reduced SARS-CoV-2 viral load at nanomolar concentrations
- primary safety endpoint (patients with COVID-19; patients with COVID-19 who required hospitalization): met the primary safety endpoint
- preliminary secondary endpoints of efficacy (patients with COVID-19; treated patients): substantial reduction in viral load and the C-reactive protein
